According to patent publication US4684664A, “Derivatives of β-(4-isocyano-1,2,3,4-diepoxycyclopentyl) acrylic acid” (Kureha Kagaku Kogyo Kabushiki Kaisha, priority 1984, dated 1987):
≈ marks a conversion by molar mass, not a printed value.

Key:
Type in all cases: cell-based
[1] = system: Streptococcus pyogenes Cook; assay: Antibacterial activity, agar-dilution MIC, organism No. 4; conditions: Streptococcus pyogenes; Organism No. 4, bouillon-agar; read-out: Minimum Inhibitory Concentration
Method in brief: (§1)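 Endpoint: MIC in μg/ml of culture medium. Method: agar dilution. Medium: bouillon agar.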

[2] = system: Bacillus subtilis ATCC 6633; assay: Antibacterial activity, agar-dilution MIC, organism No. 14; conditions: Bacillus subtilis, ATCC6633; Organism No. 14, bouillon-agar; read-out: Minimum Inhibitory Concentration
Method in brief: as §1

[3] = system: Salmonella enteritidis G 14; assay: Antibacterial activity, agar-dilution MIC, organism No. 12; conditions: Salmonella enterica, ENTERITIDIS; Organism No. 12, bouillon-agar; read-out: Minimum Inhibitory Concentration
Method in brief: as §1

[4] = system: Staphylococcus aureus MS 353; assay: Antibacterial activity, agar-dilution MIC, organism No. 3; conditions: Staphylococcus aureus, MS353; Organism No. 3, bouillon-agar; read-out: Minimum Inhibitory Concentration
Method in brief: as §1

[5] = system: Mycoplasma pneumoniae IID817; assay: Antimycoplasmal activity, MIC by phenol red colour change, organism No. 28; conditions: Mycoplasma, IID817; Organism No. 28, PPLO broth + 1% glucose, 37° C.; read-out: Minimum Inhibitory Concentration (MIC)
Experimental: Mycoplasma pneumoniae IID817 was used as the test microorganism in a culture medium prepared by adding 1% of glucose to "PPLO broth (manufactured by Difco Co.) liquid culture medium" at 37° C. with phenol red as an indicator, thereby culturing the test microorganism.

[6] = system: Proteus mirabilis IFO 3849; assay: Antibacterial activity, agar-dilution MIC, organism No. 19; conditions: Proteus mirabilis, IFO3849; Organism No. 19, bouillon-agar; read-out: Minimum Inhibitory Concentration
Method in brief: as §1

[7] = system: Streptococcus faecium IFO 3826; assay: Antibacterial activity, agar-dilution MIC, organism No. 27; conditions: Enterococcus faecium, IFO3826; Organism No. 27, bouillon-agar; read-out: Minimum Inhibitory Concentration
Method in brief: as §1

[8] = system: Micrococcus luteus ATCC 9341; assay: Antibacterial activity, agar-dilution MIC, organism No. 25; conditions: Micrococcus luteus, ATCC9341; Organism No. 25, bouillon-agar; read-out: Minimum Inhibitory Concentration
Method in brief: as §1

[9] = system: Pseudomonas aeruginosa PAO 1; assay: Antibacterial activity, agar-dilution MIC, organism No. 17; conditions: Pseudomonas aeruginosa, PAO1; Organism No. 17, bouillon-agar; read-out: Minimum Inhibitory Concentration
Method in brief: as §1

Proteus vulgaris OX-19 = assay: Antibacterial activity, agar-dilution MIC, organism No. 20; conditions: Proteus vulgaris, OX19; Organism No. 20, bouillon-agar; read-out: Minimum Inhibitory Concentration
Method in brief: as §1

Proteus vulgaris HX-19 = assay: Antibacterial activity, agar-dilution MIC, organism No. 21; conditions: Proteus vulgaris, HX19; Organism No. 21, bouillon-agar; read-out: Minimum Inhibitory Concentration
Method in brief: as §1

[10] = system: Staphylococcus aureus FDA 209PJc-1; assay: Antibacterial activity, agar-dilution MIC, organism No. 1; conditions: Staphylococcus aureus, FDA209PJC1; Organism No. 1, bouillon-agar; read-out: Minimum Inhibitory Concentration
Method in brief: as §1

[11] = system: Staphylococcus aureus Terajima; assay: Antibacterial activity, agar-dilution MIC, organism No. 2; conditions: Staphylococcus aureus; Organism No. 2, bouillon-agar; read-out: Minimum Inhibitory Concentration
Method in brief: as §1

[12] = system: Streptococcus pyogenes IFO 3340; assay: Antibacterial activity, agar-dilution MIC, organism No. 26; conditions: Streptococcus pyogenes, IFO3340; Organism No. 26, bouillon-agar; read-out: Minimum Inhibitory Concentration
Method in brief: as §1

[13] = system: Aspergillus niger IFO 6342; assay: Antifungal activity, agar-dilution MIC, organism No. 30; conditions: Aspergillus niger, IFO6342; Organism No. 30, bouillon-agar; read-out: Minimum Inhibitory Concentration
Method in brief: as §1

[14] = system: Salmonella typhimurium IID 971; assay: Antibacterial activity, agar-dilution MIC, organism No. 8; conditions: Salmonella enterica; Organism No. 8, bouillon-agar; read-out: Minimum Inhibitory Concentration
Method in brief: as §1

[15] = system: Pseudomonas aeruginosa IFO 3445; assay: Antibacterial activity, agar-dilution MIC, organism No. 15; conditions: Pseudomonas aeruginosa, IFO3445; Organism No. 15, bouillon-agar; read-out: Minimum Inhibitory Concentration
Method in brief: as §1

[16] = system: Escherichia coli NIHJ-JC-2; assay: Antibacterial activity, agar-dilution MIC, organism No. 5; conditions: Escherichia coli, NIHJJC2; Organism No. 5, bouillon-agar; read-out: Minimum Inhibitory Concentration
Method in brief: as §1

[17] = system: Candida albicans IAM 4905; assay: Antifungal activity, agar-dilution MIC, organism No. 29; conditions: Candida albicans, IAM4905; Organism No. 29, bouillon-agar; read-out: Minimum Inhibitory Concentration
Method in brief: as §1

[18] = system: Proteus rettgeri IFO 3850; assay: Antibacterial activity, agar-dilution MIC, organism No. 22; conditions: Providencia rettgeri, IFO3850; Organism No. 22, bouillon-agar; read-out: Minimum Inhibitory Concentration
Method in brief: as §1

[19] = system: Salmonella shottmuelleri 8006; assay: Antibacterial activity, agar-dilution MIC, organism No. 11; conditions: Salmonella, 8006; Organism No. 11, bouillon-agar; read-out: Minimum Inhibitory Concentration
Method in brief: as §1

[20] = system: Klebsiella pneumoniae PCI-602; assay: Antibacterial activity, agar-dilution MIC, organism No. 7; conditions: Klebsiella pneumoniae, PCI602; Organism No. 7, bouillon-agar; read-out: Minimum Inhibitory Concentration
Method in brief: as §1

[21] = system: Proteus morganii IFO 3848; assay: Antibacterial activity, agar-dilution MIC, organism No. 18; conditions: Morganella morganii, IFO3848; Organism No. 18, bouillon-agar; read-out: Minimum Inhibitory Concentration
Method in brief: as §1

Salmonella typhi 901 = assay: Antibacterial activity, agar-dilution MIC, organism No. 9; conditions: Salmonella enterica, TYPHI, read-out: Minimum Inhibitory Concentration
Method in brief: as §1

[22] = system: Enterobacter aerogenes ATCC 13048; assay: Antibacterial activity, agar-dilution MIC, organism No. 23; conditions: Klebsiella aerogenes, ATCC13048; Organism No. 23, bouillon-agar; read-out: Minimum Inhibitory Concentration
Method in brief: as §1

[23] = system: Salmonella paratyphi-A 1015; assay: Antibacterial activity, agar-dilution MIC, organism No. 10; conditions: Salmonella enterica, PARATYPHI, read-out: Minimum Inhibitory Concentration
Method in brief: as §1

Enterobacter cloacae 963 = assay: Antibacterial activity, agar-dilution MIC, organism No. 24; conditions: Enterobacter cloacae, 963; Organism No. 24, bouillon-agar; read-out: Minimum Inhibitory Concentration
Method in brief: as §1

[24] = system: Escherichia coli K12 C600 IAM 1264; assay: Antibacterial activity, agar-dilution MIC, organism No. 6; conditions: Escherichia coli, IAM1264; Organism No. 6, bouillon-agar; read-out: Minimum Inhibitory Concentration
Method in brief: as §1

[25] = system: Pseudomonas aeruginosa NCTC 10490; assay: Antibacterial activity, agar-dilution MIC, organism No. 16; conditions: Pseudomonas aeruginosa, NCTC10490; Organism No. 16, bouillon-agar; read-out: Minimum Inhibitory Concentration
Method in brief: as §1

[26] = system: Serratia marcescens IAM 1184; assay: Antibacterial activity, agar-dilution MIC, organism No. 13; conditions: Serratia marcescens, IAM1184; Organism No. 13, bouillon-agar; read-out: Minimum Inhibitory Concentration
Method in brief: as §1

For `[C-]#[N+]C12CC3(/C=C/C(=O)N4CCCC4)OC3C1O2` (stereo not drawn) [compound 21], the MIC [1] was 100 µg/mL (≈ 406 µM), the MIC [2] was 200 µg/mL (≈ 812 µM) and the MIC [3] was 50 µg/mL (≈ 203 µM). It also gave an MIC [4] of 50 µg/mL (≈ 203 µM), an MIC [5] of 1.56 µg/mL and an MIC [6] of over 200 µg/mL. It also gave an MIC [7] of over 200 µg/mL, an MIC [8] of 0.39 µg/mL (≈ 1.58 µM) and an MIC [9] of over 200 µg/mL. It also gave an MIC (Proteus vulgaris OX-19) of 25 µg/mL (≈ 102 µM), an MIC (Proteus vulgaris HX-19) of 1.56 µg/mL (≈ 6.33 µM) and an MIC [10] of 50 µg/mL (≈ 203 µM). For the same molecule, the MIC [11] was 100 µg/mL (≈ 406 µM), the MIC [12] was over 200 µg/mL and the MIC [13] was 3.13 µg/mL (≈ 12.7 µM). It also gave an MIC [14] of 100 µg/mL (≈ 406 µM), an MIC [15] of over 200 µg/mL and an MIC [16] of over 200 µg/mL. For the same molecule, the MIC [17] was 6.25 µg/mL (≈ 25.4 µM), the MIC [18] was over 200 µg/mL and the MIC [19] was 50 µg/mL (≈ 203 µM). For the same molecule, the MIC [20] was 50 µg/mL (≈ 203 µM), the MIC [21] was 50 µg/mL (≈ 203 µM) and the MIC (Salmonella typhi 901) was 50 µg/mL (≈ 203 µM). For the same molecule, the MIC [22] was over 200 µg/mL, the MIC [23] was 100 µg/mL (≈ 406 µM) and the MIC (Enterobacter cloacae 963) was over 200 µg/mL. It also gave an MIC [24] of over 200 µg/mL, an MIC [25] of over 200 µg/mL and an MIC [26] of over 200 µg/mL.

Molecule `[C-]#[N+]C12CC3(/C=C/C(=O)OCc4ccccc4[N+](=O)[O-])OC3C1O2` (stereo not drawn) [compound 13] has an MIC [1] of 100 µg/mL (≈ 305 µM), an MIC [2] of 25 µg/mL (≈ 76.2 µM) and an MIC [3] of 200 µg/mL (≈ 609 µM). The MIC [4] was 0.39 µg/mL (≈ 1.19 µM), the MIC [5] was 0.2 µg/mL and the MIC [6] was over 200 µg/mL. The MIC [7] was 0.78 µg/mL (≈ 2.38 µM), the MIC [8] was under 0.1 µg/mL and the MIC [9] was over 200 µg/mL. It also gave an MIC (Proteus vulgaris OX-19) of 25 µg/mL (≈ 76.2 µM), an MIC (Proteus vulgaris HX-19) of 0.1 µg/mL (≈ 0.305 µM) and an MIC [10] of 0.39 µg/mL (≈ 1.19 µM). It also gave an MIC [11] of 0.39 µg/mL (≈ 1.19 µM), an MIC [12] of 100 µg/mL (≈ 305 µM) and an MIC [13] of 6.25 µg/mL (≈ 19 µM). It also gave an MIC [14] of 200 µg/mL (≈ 609 µM), an MIC [15] of over 200 µg/mL and an MIC [16] of 100 µg/mL (≈ 305 µM). For the same molecule, the MIC [17] was 0.8 µg/mL (≈ 2.44 µM), the MIC [18] was 100 µg/mL (≈ 305 µM) and the MIC [19] was 12.5 µg/mL (≈ 38.1 µM). It also gave an MIC [20] of 25 µg/mL (≈ 76.2 µM), an MIC [21] of 12.5 µg/mL (≈ 38.1 µM) and an MIC (Salmonella typhi 901) of 50 µg/mL (≈ 152 µM). It also gave an MIC [22] of over 200 µg/mL, an MIC [23] of 25 µg/mL (≈ 76.2 µM) and an MIC (Enterobacter cloacae 963) of over 200 µg/mL. For the same molecule, the MIC [24] was 100 µg/mL (≈ 305 µM), the MIC [25] was over 200 µg/mL and the MIC [26] was 100 µg/mL (≈ 305 µM).

Molecule `[C-]#[N+]C12CC3(/C=C/C(=O)Nc4cccc(O)c4)OC3C1O2` (stereo not drawn) [compound 57] has an MIC [1] of 12.5 µg/mL (≈ 44 µM), an MIC [2] of 6.25 µg/mL (≈ 22 µM) and an MIC [3] of 3.13 µg/mL (≈ 11 µM). The MIC [4] was 1.56 µg/mL (≈ 5.49 µM), the MIC [5] was under 0.2 µg/mL and the MIC [6] was 6.25 µg/mL (≈ 22 µM). The MIC [7] was 25 µg/mL (≈ 87.9 µM), the MIC [8] was 0.1 µg/mL (≈ 0.352 µM) and the MIC [9] was over 200 µg/mL. It also gave an MIC (Proteus vulgaris OX-19) of 1.56 µg/mL (≈ 5.49 µM), an MIC (Proteus vulgaris HX-19) of 0.78 µg/mL (≈ 2.74 µM) and an MIC [10] of 1.56 µg/mL (≈ 5.49 µM). It also gave an MIC [11] of 6.25 µg/mL (≈ 22 µM), an MIC [12] of 3.13 µg/mL (≈ 11 µM) and an MIC [13] of 50 µg/mL (≈ 176 µM). It also gave an MIC [14] of 12.5 µg/mL (≈ 44 µM), an MIC [15] of over 200 µg/mL and an MIC [16] of 12.5 µg/mL (≈ 44 µM). The MIC [17] was 50 µg/mL (≈ 176 µM), the MIC [18] was 3.13 µg/mL (≈ 11 µM) and the MIC [19] was 1.56 µg/mL (≈ 5.49 µM). For the same molecule, the MIC [20] was 1.56 µg/mL (≈ 5.49 µM), the MIC [21] was 1.56 µg/mL (≈ 5.49 µM) and the MIC (Salmonella typhi 901) was 3.13 µg/mL (≈ 11 µM). It also gave an MIC [22] of over 200 µg/mL, an MIC [23] of 3.13 µg/mL (≈ 11 µM) and an MIC (Enterobacter cloacae 963) of 100 µg/mL (≈ 352 µM). It also gave an MIC [24] of 12.5 µg/mL (≈ 44 µM), an MIC [25] of over 200 µg/mL and an MIC [26] of 12.5 µg/mL (≈ 44 µM).
